Assays:
[1] = tested on: ConA-challenged C57BL-6 mice; assay: ConA-induced hepatotoxicity with soybean-derived extracts (Example 6); type: in vivo; details: combinations 1:1, especially 0.3 and 3 μg per mouse
Experimental: Either two (Example 1 (A)) or three (Example 1 (B)) groups of mice (10 mice per group) were studied. ConA was dissolved in 50 mM Tris (pH 7), 150 mM NaCl, and 4 mM CaCl2. To induce autoimmune hepatitis, mice were injected i.v. with 20 mg/kg ConA. Control mice were injected with PBS. A specified dosage of […] or vehicle was administered to the mice orally […] before (Example 1 (A)) or 30 min after (Example 1 (B)) they had received an injection of ConA. The mice were sacrificed 16 h (Example 1 (A)) or 17 h (Example 1 (B)) later. For Example 4 (ConA challenge in different […] extracts), six groups of 4-5 11-12 weeks old male C57BL/6 mice were treated per os for three days with extracts as show in Table 4. The mice were injected i.v. (tail vein) 500 μg of ConA, (20 mg/kg body weight) and sacrificed 14 h later. After sacrifice measurements of serum IFN-γ was carried out using ELISA. […] Serum ALT and AST activities were determined and serum levels of IFN-γ and TNF-α were measured. […] Serum levels of IFN-γ, TNF-α, and IL-6 were determined by “sandwich” ELISA using commercial kits according to the manufacturer's instructions. […] Serum ALT and AST activities were determined and serum levels of IFN-γ and TNF-α were measured.

HFD-fed mice = assay: HFD obese mouse model with soybean extracts M1, OS and combinations (Example 7); type: in vivo
Experimental: Five mice per experimental group were fed HFD diet, comprising 42% calories from fat. The mice were administered the indicated extracts per os 3 times a week for three months, and then sacrificed. The mice weight, fasting glucose levels, ALT, serum triglycerides (TGs) and cholesterol were determined every 2 weeks. Glucose Tolerance Test was performed after 4 and 12 weeks. On sacrifice day, serum and a liver biopsy were collected for determination of serum insulin levels, liver TG and for H&E histological analysis.
After sacrifice, measurements of serum ALT and AST activities were carried out, and serum levels of IFN-γ, TNF-α and insulin were determined.
TGs were extracted from aliquots of snap-frozen livers using a modification of the Folch method. Hepatic TG content was assayed spectrophotometrically using a GPO-Trinder kit and was normalized to the protein content in the homogenate.
Plasma TG and total cholesterol were measured by a clinical chemistry analyzer, the Reflovet Plus machine.
Fasting glucose levels were measured after overnight (12 h) fasting. Serum glucose measurements were performed on tail-vein blood by a standard glucometer.
Mice underwent a GTT after overnight fasting. Glucose was administered orally (1.25 g/kg body weight). Serum glucose measurements were performed on tail-vein blood every 15 min for 3 h. Glucose levels were measured by a standard glucometer.
Serum insulin levels were determined using a commercially available ELISA kit (Mercodia), according to the manufacturer's instructions. Serum was collected from euthanized mice on the day of sacrifice (after 12 h fasting) and kept in −80° C. until analysis.
Serum levels of IFN-γ, TNF-α, and IL-6 were determined by “sandwich” ELISA using commercial kits according to the manufacturer's instructions.
Flow cytometry was performed following splenocyte and hepatic lymphocyte isolation using 1×10^6 lymphocytes in 100 μl PBS with 0.1% BSA. For surface staining, cells were incubated with fluorochrome-conjugated antibodies to the indicated cell surface markers at the recommended dilutions or with isotype control antibodies for 30 minutes at 4° C. The following cell surface anti-mouse antibodies were used: CD4/CD3-Pacific Blue, CD25/NK1.1-PE and CD8-FITC. Cells were then washed in PBS containing 1% BSA and fixed with fixation buffer for another 50 minutes. For intracellular staining of Foxp3, fixed cells were permeabilized with Foxp3 staining buffer. Cells were then stained with PE-Cy7-conjugated antibodies to Foxp3, washed twice and resuspended in 250 μl of PBS containing 1% BSA and kept at 4° C. One million stained cells in 250 μl of PBS containing 1% BSA were subsequently analyzed using a FACS LSR II instrument with FCS express V.3 software. Only live cells were counted, and background fluorescence from non-antibody-treated lymphocytes was subtracted.
A HFD obese mouse model was therefore used to assess the hepatoprotective action of the soybean extracts M1, OS and their combinations. Young (6-7 weeks old) male C57BL/6 mice (5 mice per experimental group) were fed HFD diet ad libitum for 12 weeks. The mice were administered the indicated soybean extracts or combinations per os 3 times a week for the duration of the experiment. After 12 weeks, the mice were sacrificed. During the experiment the mice weight, fasting glucose level, ALT, serum triglycerides (TGs) and cholesterol were measured every 2 weeks, and glucose tolerance test was carried out after the fourth and twelfth weeks. On sacrifice day, serum samples and livers were collected. Serum TNF-α and insulin were determined, hepatic TG were measured and a liver section stained with H&E was prepared and analyzed. A FACS analysis of splenic T regulatory and NKT cells was also performed.

Substance: glucosylceramide [GC]
- hepatic protection (liver enzymes and serum IFN-γ and TNF-α), summary [1]: significant decrease
- effectiveness over all tested parameters, summary (HFD-fed mice; HFD model, combinations 1:1, 0.3 μg and 3 μg per mouse): effective but not in all tested parameters
- fasting glucose levels (HFD-fed mice; M1/OS mixtures (both doses), GC 25 μg, vs control mice): significantly lower
- GTT results (HFD-fed mice; after 12 weeks in HFD, vs control and OS-treated mice): marked improvement
- liver lipid accumulation (H&E stained liver sections) (HFD-fed mice; both M1/OS mixture doses (0.3 μg each and 3 μg each), GC 25 μg): striking improvement
- hepatic TG levels (HFD-fed mice; single agents (M1 3 μg, GC 25 μg), week 12, vs control mice): no clear effect
- fasting insulin levels (HFD-fed mice; single agents (OS 3 μg, GC 25 μg, M1 3 μg), week 12): lowest

Source: patent US20130202724A1, “SOYBEAN EXTRACTS FOR THE TREATMENT OF HEPATIC DISORDERS” (Hadasit Medical Research Services and Development Ltd., priority 2010, published 2013)
